This passage reports IC50 results from US9650379B2 (CHONG KUN DANG PHARMACEUTICAL CORP., priority 2013, dated 2017).

The target of assay [1] is T1, HDAC1 (Homo sapiens, UniProt Q13547).
T1 construct: purchased Enzolifesciences BML-AK511
Description: Inhibition of HDAC1 activity (HDAC1 fluorimetric drug discovery assay kit). Conditions: test concentrations 100, 1000 and 10000 nM; 37° C., 60 minutes. Type of assay: biochemical. In short, it runs like this:
(§1)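 HDAC1 tested with the kit assay mixture at 100, 1000 and 10000 nM compound; recombinant human HDAC6 at 0.1, 1, 10, 100 and 1000 nM. Reaction ran 60 min at 37° C, then developer was added for 30 min at 37° C and fluorescence quantified.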

The target of assay [2] is T2, HDAC6 human recombinant (Homo sapiens, UniProt Q9UBN7).
T2 construct: purchased Calbiochem 382180
T2 sequence (Q9UBN7 1-1215): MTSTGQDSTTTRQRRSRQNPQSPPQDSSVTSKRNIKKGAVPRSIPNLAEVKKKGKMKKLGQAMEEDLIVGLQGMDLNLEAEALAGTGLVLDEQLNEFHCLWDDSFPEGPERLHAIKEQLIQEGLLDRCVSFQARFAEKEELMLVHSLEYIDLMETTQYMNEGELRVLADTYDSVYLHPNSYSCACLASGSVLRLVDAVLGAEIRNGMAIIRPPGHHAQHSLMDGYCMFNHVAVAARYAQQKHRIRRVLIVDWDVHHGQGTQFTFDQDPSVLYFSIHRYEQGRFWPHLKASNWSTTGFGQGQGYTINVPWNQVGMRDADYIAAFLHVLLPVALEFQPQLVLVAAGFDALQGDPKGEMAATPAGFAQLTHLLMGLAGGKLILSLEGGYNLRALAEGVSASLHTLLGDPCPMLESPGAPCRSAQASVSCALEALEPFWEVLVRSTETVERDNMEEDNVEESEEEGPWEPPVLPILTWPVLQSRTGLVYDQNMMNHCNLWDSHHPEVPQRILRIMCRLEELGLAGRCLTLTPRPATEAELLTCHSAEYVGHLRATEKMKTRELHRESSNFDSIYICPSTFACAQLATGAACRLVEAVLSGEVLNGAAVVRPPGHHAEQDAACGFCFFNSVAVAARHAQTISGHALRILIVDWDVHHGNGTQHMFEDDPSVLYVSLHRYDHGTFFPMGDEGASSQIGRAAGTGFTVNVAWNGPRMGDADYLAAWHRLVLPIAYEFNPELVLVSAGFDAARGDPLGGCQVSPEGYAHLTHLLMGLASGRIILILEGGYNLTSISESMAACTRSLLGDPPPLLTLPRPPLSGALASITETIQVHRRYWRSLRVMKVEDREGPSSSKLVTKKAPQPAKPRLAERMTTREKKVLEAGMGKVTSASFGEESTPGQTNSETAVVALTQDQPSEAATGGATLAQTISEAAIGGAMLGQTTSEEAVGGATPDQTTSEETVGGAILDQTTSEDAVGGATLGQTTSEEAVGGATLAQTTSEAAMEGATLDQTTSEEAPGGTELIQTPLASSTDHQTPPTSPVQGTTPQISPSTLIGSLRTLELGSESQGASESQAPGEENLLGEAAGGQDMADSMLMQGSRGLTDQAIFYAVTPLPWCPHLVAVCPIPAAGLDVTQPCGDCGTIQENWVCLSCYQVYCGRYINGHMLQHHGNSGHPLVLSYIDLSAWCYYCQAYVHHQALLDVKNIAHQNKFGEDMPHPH
Description: Inhibition of HDAC6 activity (fluorimetric assay). Type of assay: biochemical. Conditions: test concentrations 0.1, 1, 10, 100 and 1000 nM; 37° C., 60 minutes. In short, it runs like this:
as §1

T1 sequence (Q13547 whole entry): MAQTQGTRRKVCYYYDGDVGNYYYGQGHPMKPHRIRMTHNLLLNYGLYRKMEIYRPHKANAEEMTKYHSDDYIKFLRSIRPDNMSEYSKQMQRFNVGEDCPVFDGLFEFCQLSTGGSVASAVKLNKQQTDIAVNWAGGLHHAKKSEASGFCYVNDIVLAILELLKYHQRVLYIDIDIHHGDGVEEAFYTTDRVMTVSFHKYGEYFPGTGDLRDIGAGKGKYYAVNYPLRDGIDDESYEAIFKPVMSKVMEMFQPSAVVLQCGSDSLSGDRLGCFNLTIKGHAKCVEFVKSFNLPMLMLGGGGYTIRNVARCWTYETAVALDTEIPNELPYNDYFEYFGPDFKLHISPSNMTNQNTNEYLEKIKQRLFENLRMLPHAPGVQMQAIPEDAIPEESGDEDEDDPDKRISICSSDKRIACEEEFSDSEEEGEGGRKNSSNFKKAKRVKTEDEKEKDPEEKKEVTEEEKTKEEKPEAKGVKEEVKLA

For the molecule `O=C(NO)c1ccc(Cn2ccc3cc(-c4ccccc4)cnc32)cc1` [Compound 645, N-hydroxy-4-((5-phenyl-1H-pyrrolo[2,3-b]pyridin-1-yl)methyl)benzamide], the IC50 (usually the midpoint of a concentration-inhibition curve) in assay [1] stood at 3050 nM; in assay [2], 17 nM.

On to `CC(C)(C)OC(=O)N1CCN(c2ccnc3c2ccn3Cc2ccc(C(=O)NO)cc2)CC1` [Compound 212], for which the results for the IC50 in assay [1] and in assay [2] were 890 nM and 14 nM, respectively.

For the molecule `CC(C)(O)CN1CCC(c2ccc3ccn(Cc4ccc(C(=O)NO)cc4)c3n2)CC1` [Compound 991, N-hydroxy-4-((6-(1-(2-hydroxy-2-methylpropyl)piperidin-4-yl)-1H-pyrrolo[2,3-b]pyridin-1-yl)methyl)benzamide], the IC50 is 880 nM in assay [1] and 32 nM in assay [2].

As to `O=C(NO)c1ccc(Cn2ccc3cc(C4CCN(Cc5ccc(-c6ccco6)cc5)CC4)cnc32)cc1` [Compound 875, 4-((5-(1-(4-(furan-2-yl)benzyl)piperidin-4-yl)-1H-pyrrolo[2,3-b]pyridin-1-yl)methyl)-N-hydroxybenzamide], the IC50 worked out at 2320 nM in assay [1] and 32.4 nM in assay [2].

Turning to `CN1CCN(Cc2cccc(-c3ccnc4c3ccn4Cc3ccc(C(=O)NO)cc3)c2)CC1` [Compound 799, N-hydroxy-4-((4-(3-((4-methylpiperazin-1-yl)methyl)phenyl)-1H-pyrrolo[2,3-b]pyridin-1-yl)methyl)benzamide], the results for the IC50 in assay [1] and in assay [2] were 570 nM and 3.8 nM, respectively.

Consider `O=C(NO)c1ccc(Cn2ccc3c(-c4cncnc4)ccnc32)cc1` [Compound 659, N-hydroxy-4-((4-(pyrimidin-5-yl)-1H-pyrrolo[2,3-b]pyridin-1-yl)methyl)benzamide], for which the IC50 stood at 900 nM in assay [1] and 4 nM in assay [2].

As for `CC(C)(C)OC(=O)N1CC=C(c2nccc3c2ccn3Cc2ccc(C(=O)NO)cc2)CC1` [Compound 757, tert-butyl 4-(1-(4-(hydroxycarbamoyl)benzyl)-1H-pyrrolo[3,2-c]pyridin-4-yl)-5,6-dihydropyridine-1(2H)-carboxylate], the values for the IC50 in assay [1] and in assay [2] were 1120 nM and 17 nM, respectively.

As for `CCC(F)(CC)CN1CCN(c2ccnc3c2ccn3Cc2ccc(C(=O)NO)cc2)CC1` [Compound 764, 4-((4-(4-(2-ethyl-2-fluorobutyl)piperazin-1-yl)-1H-pyrrolo[2,3-b]pyridin-1-yl)methyl)-N-hydroxybenzamide], the IC50 was 3220 nM in assay [1] and 91 nM in assay [2].

For the molecule `C[C@@H]1CN(c2cnc3c(ccn3Cc3ccc(C(=O)NO)cc3)c2)C[C@H](C)N1Cc1cccnc1` [Compound 1004, 4-((5-((3S,5R)-3,5-dimethyl-4-(pyridin-3-ylmethyl)piperazin-1-yl)-1H-pyrrolo[2,3-b]pyridin-1-yl)methyl)-N-hydroxybenzamide], the IC50 is 610 nM in assay [1] and 3.2 nM in assay [2].

For the molecule `CN1CCN(c2ccccc2CN2CCC(c3cnc4c(ccn4Cc4ccc(C(=O)NO)cc4)c3)CC2)CC1` [Compound 883, N-hydroxy-4-((5-(1-(2-(4-methylpiperzin-1-yl)benzyl)piperidin-4-yl)-1H-pyrrolo[2,3-b]pyridin-1-yl)methyl)benzamide], the IC50 is 2090 nM in assay [1] and 2.1 nM in assay [2].

For `CN1CCC(c2cnc3c(ccn3Cc3ccc(C(=O)NO)cc3)c2)CC1` [Compound 867, N-hydroxy-4-((5-(1-methylpiperidin-4-yl)-1H-pyrrolo[2,3-b]pyridin-1-yl)methyl)benzamide], the values for the IC50 in assay [1] and in assay [2] were 620 nM and 7.8 nM, respectively.

For the molecule `CC(C)(F)C(=O)N1CCC(c2ccnc3c2ccn3Cc2ccc(C(=O)NO)cc2)CC1` [Compound 858, 4-((4-(1-(2-fluoro-2-methylpropanoyl)piperidin-4-yl)-1H-pyrrolo[2,3-b]pyridin-1-yl)methyl)-N-hydroxybenzamide], the figures for the IC50 in assay [1] and in assay [2] were 60 nM and 3.6 nM, respectively.

For `O=C(NO)c1ccc(Cn2ccc3c(N4CCN(c5cnc(C(F)(F)F)cn5)CC4)ccnc32)cc1` [Compound 701, N-hydroxy-4-((4-(4-(5-(trifluoromethyl)pyrazin-2-yl)piperazin-1-yl)-1H-pyrrolo[2,3-b]pyridin-1-yl)methyl)benzamide], the IC50 came to 1530 nM in assay [1] and 23 nM in assay [2].

Regarding `O=C(NO)c1ccc(Cn2ccc3c(C4CCN(Cc5ccccc5F)CC4)ccnc32)cc1` [Compound 869, 4-((4-(1-(2-fluorobenzyl)piperidin-4-yl)-1H-pyrrolo[2,3-b]pyridin-1-yl)methyl)-N-hydroxybenzamide], the IC50 in assay [1] is 350 nM; in assay [2], 26.3 nM.

In the case of `O=C(NO)c1ccc(Cn2ccc3c(N4CCN(C(=O)C5(C(F)(F)F)CCC5)CC4)ccnc32)cc1` [Compound 703, N-hydroxy-4-((4-(4-(1-(trifluoromethyl)cyclobutanecarbonyl)piperazin-1-yl)-1H-pyrrolo[2,3-b]pyridin-1-yl)methyl)benzamide], the IC50 in assay [1] turned out to be 720 nM; in assay [2], 6 nM.

Take `O=C(NO)c1ccc(Cn2ccc3cc(N4CCC5(CC4)CN(Cc4cccnc4)C5)cnc32)cc1` [Compound 957, N-hydroxy-4-((5-(2-(pyridin-3-ylmethyl)-2,7-diazaspiro[3.5]nonan-7-yl)-1H-pyrrolo[2,3-b]pyridin-1-yl)methyl)benzamide]: the IC50 was determined as 650 nM in assay [1] and 1.6 nM in assay [2].

Consider `O=C(NO)c1ccc(Cn2ccc3cc(-c4ccc(F)cc4)cnc32)cc1` [Compound 104, 4-((5-(4-fluorophenyl)-1H-pyrrolo[2,3-b]pyridin-1-yl)methyl)-N-hydroxybenzamide], for which the results for the IC50 in assay [1] and in assay [2] were 1670 nM and 0.7 nM, respectively.

As to `O=C(NO)c1ccc(Cn2ccc3c(-c4cccc(CN5CCOCC5)c4)ccnc32)cc1` [Compound 761, N-hydroxy-4-((4-(3-(morpholinomethyl)phenyl)-1H-pyrrolo[2,3-b]pyridin-1-yl)methyl)benzamide], the IC50 in assay [1] was found to be 430 nM; in assay [2] it was 9 nM.

Consider `COc1ccc(-c2cnc3c(ccn3Cc3ccc(C(=O)NO)cc3)c2)cc1` [Compound 689, N-hydroxy-4-((5-(4-methoxyphenyl)-1H-pyrrolo[2,3-b]pyridin-1-yl)methyl)benzamide], for which the IC50 worked out at 3170 nM in assay [1] and 83 nM in assay [2].

For the molecule `O=C(NO)c1ccc(Cn2ccc3c(N4CCN(Cc5ccccc5F)CC4)ccnc32)cc1` [Compound 847, 4-((4-(4-(2-fluorobenzyl)piperazin-1-yl)-1H-pyrrolo[2,3-b]pyridin-1-yl)methyl)-N-hydroxybenzamide], the IC50 is 600 nM in assay [1] and 5.6 nM in assay [2].

In the case of `O=C(NO)c1ccc(Cn2ccc3c(C4CCN(C(=O)c5cccc(F)c5)CC4)ccnc32)cc1` [Compound 860, 4-((4-(1-(3-fluorobenzoyl)piperidin-4-yl)-1H-pyrrolo[2,3-b]pyridin-1-yl)methyl)-N-hydroxybenzamide], the IC50 came to 120 nM in assay [1] and 2.5 nM in assay [2].

Take `CN1CCN(Cc2cccc(CN3CCC(c4ccnc5c4ccn5Cc4ccc(C(=O)NO)cc4)CC3)c2)CC1` [Compound 986, N-hydroxy-4-((4-(1-(3-((4-methylpiperazin-1-yl)methyl)benzyl)piperidin-4-yl)-1H-pyrrolo[2,3-b]pyridin-1-yl)methyl)benzamide]: the IC50 amounted to 420 nM in assay [1] and 11.5 nM in assay [2].

For `O=C(NO)c1ccc(Cn2ccc3cc(N4CCOCC4)cnc32)cc1` [Compound 787, N-hydroxy-4-((5-morpholino-1H-pyrrolo[2,3-b]pyridin-1-yl)methyl)benzamide], the IC50 was 2780 nM in assay [1] and 24.9 nM in assay [2].

With `Nc1cccc(-c2ccnc3c2ccn3Cc2ccc(C(=O)NO)cc2)c1` [Compound 722, 4-((4-(3-aminophenyl)-1H-pyrrolo[2,3-b]pyridin-1-yl)methyl)-N-hydroxybenzamide], the IC50 in assay [1] was 270 nM; in assay [2] it was 3 nM.
